In PubChem BioAssay (NCI):
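The concentration for 50% growth inhibition is given as GI50. At the TGI there is no net growth.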

Assays:
Assay in all cases: inhibition of tumour cell growth, NCI panel, 384-well format
[1] = tested on: A498 renal
[2] = tested on: ACHN renal
[3] = tested on: HCC-2998 colon
[4] = tested on: HCT-116 colon
[5] = tested on: HOP-62 NSCLC
[6] = tested on: MDA-MB-231 breast
[7] = tested on: OVCAR-8 ovarian
[8] = tested on: RPMI-8226 leukemia
[9] = tested on: RXF 393 renal
[10] = tested on: SF-539 CNS
[11] = tested on: SNB-19 CNS
[12] = tested on: TK-10 renal
[13] = tested on: UACC-257 melanoma

**Q.** How did the GI50 [1] turn out when `C[C@@H](C(=O)Nc1ccc(Cl)cc1)C1CCC(c2ccnc3ccc(F)cc23)CC1` (stereo partly specified) was run?
**A.** Its GI50 is 5.31 µM.

**Q.** And the TGI [1]?
**A.** The TGI was 21.1 µM.

**Q.** And the GI50 [2]?
**A.** The GI50 was 9.63 µM.

**Q.** And the TGI [2]?
**A.** Its TGI is 41.4 µM.

**Q.** And the GI50 [3]?
**A.** Its GI50 is 4.23 µM.

**Q.** And the TGI [3]?
**A.** Its TGI is 15.9 µM.

**Q.** What about the GI50 [4] of the same molecule?
**A.** The GI50 was 6.31 µM.

**Q.** What about the TGI [4] of the same molecule?
**A.** The TGI was 20.4 µM.

**Q.** What about the GI50 [5] of the same molecule?
**A.** The GI50 was 12.8 µM.

**Q.** And the TGI [5]?
**A.** The TGI was 29.5 µM.

**Q.** And the GI50 [6]?
**A.** The GI50 was 13.3 µM.

**Q.** What about the TGI [6] of the same molecule?
**A.** Its TGI is 65.1 µM.

**Q.** And the GI50 [7]?
**A.** The GI50 was 10.4 µM.

**Q.** What about the TGI [7] of the same molecule?
**A.** Its TGI is 25.8 µM.

**Q.** What about the GI50 [8] of the same molecule?
**A.** The GI50 was 2.58 µM.

**Q.** And the TGI [8]?
**A.** Its TGI is 7.6 µM.

**Q.** What about the GI50 [9] of the same molecule?
**A.** Its GI50 is 6.04 µM.

**Q.** And the TGI [9]?
**A.** Its TGI is 20.9 µM.

**Q.** What about the GI50 [10] of the same molecule?
**A.** Its GI50 is 14.2 µM.

**Q.** And the TGI [10]?
**A.** Its TGI is 27.5 µM.

**Q.** And the GI50 [11]?
**A.** The GI50 was 17.5 µM.

**Q.** And the TGI [11]?
**A.** The TGI was 52.8 µM.

**Q.** And the GI50 [12]?
**A.** The GI50 was 11.3 µM.

**Q.** What about the TGI [12] of the same molecule?
**A.** The TGI was 86.2 µM.

**Q.** And the GI50 [13]?
**A.** The GI50 was 13.7 µM.

**Q.** What about the TGI [13] of the same molecule?
**A.** The TGI was 31.4 µM.
